Source: paper doi:10.1101/2025.04.25.650653, “Hierarchical small molecule inhibition of MYST acetyltransferases” (bioRxiv, 2025)
Where “and” joins values, the source holds several entries; their conditions need not be identical. Equal entries are not always repeated.

Experiments:
H3K14Ac (KAT7) = assay: Histone biomarker bottom-up LC-MS/MS, MCF-7; type: cell-based; conditions: for Ratio, H3_9_17 K9me1K14ac / Ratio, H3_9_17 K9me2K14ac / Ratio, H3_9_17 K14ac: Replicates 1-3
H3K9Ac (KAT2A/B) = assay: Histone biomarker bottom-up LC-MS/MS, MCF-7; type: cell-based; conditions: for Ratio, H3_9_17 K9ac: Replicates 1-3
H3K18Ac (KAT3A/B) = assay: Histone biomarker bottom-up LC-MS/MS, MCF-7; type: cell-based; conditions: for Ratio, H3_18_26 K18ac: Replicates 1-3
H4K16Ac (KAT8) = assay: MYST KAT biomarker western blot, BT-549; type: cell-based; conditions: BT-549 cells, 24 h, near the GI50 dose
NCI-60 cell line panel = assay: NCI-60 cell line screen, sulforhodamine B growth inhibition; type: cell-based, human; conditions: 48 h
BT-549 cells [1] = assay: as above; type: cell-based, human; conditions: BT-549, 10 and 100 μM, 48 h
Description: As a comparator we used growth inhibition caused by treatment of cells with CPI-1612,[45], [46] a potent inhibitor of the EP300/CREBBP (KAT3A/B), widely regarded as the master regulator of protein acetylation.
(§1) Figure 6. […] (C) Dependence of breast cancer cell lines on non-MYST KATs (EP300, CREBBP), MYST KATs (KAT6A, KAT6B, KAT7, KAT8, KAT5), and a MYST KAT complex member (BRPF1) derived from on DepMap CRISPR screening data. BT-549 is highlighted in orange. Lower CERES score indicates a greater dependence of the cell line on the specified gene. […] Data is representiative of n=2 biological replicates.
(§2) (0.01, 0.1, 1, 10, 100 μM) for 48 hours and analyzed by sulforhodamine B assay for growth inhibition as previously described.12-14 o validate the NCI-60 relative activity trends using an orthogonal method, we […]
(§3) 0.94, 0.47, 0.23, 0 μM) for 96 hours. Experiments were performed in quadruplicate, and cell viability was measured using CellTiter-Glo® Luminescent Cell Viability Assay (Promega, G7572) according to the manufacturer's instructions. Luminescence signals were recorded on a BioTek Synergy 2 plate reader, and results were normalized to vehicle-treated controls (set to 100%). Half-maximal inhibition values (IC₅₀) were determined from nonlinear regression analysis of dose-response curves using GraphPad Prism 9. […]

BT-549 cells [2] = assay: ATP-based viability assay (CellTiter-Glo); type: cell-based; conditions: Homo sapiens; BT-549, ATP-Glo assay, 72 h, n=4
Description: as §1
Analysis of DepMap-derived CRISPR screening data supports the notion that while breast cancer models vary widely in their requirement for EP300 and CREBBP, BT-549 appears to a fairly independent line. […]
as §2, §3

KAT7 = KAT7 (Homo sapiens, UniProt O95251); assay: Competitive chemoproteomic profiling (H3K14-CoA affinity capture, western blot and LC-MS/MS); conditions: 0.1 μM, HeLa nuclear extracts
Sequence of KAT7 (O95251 whole entry): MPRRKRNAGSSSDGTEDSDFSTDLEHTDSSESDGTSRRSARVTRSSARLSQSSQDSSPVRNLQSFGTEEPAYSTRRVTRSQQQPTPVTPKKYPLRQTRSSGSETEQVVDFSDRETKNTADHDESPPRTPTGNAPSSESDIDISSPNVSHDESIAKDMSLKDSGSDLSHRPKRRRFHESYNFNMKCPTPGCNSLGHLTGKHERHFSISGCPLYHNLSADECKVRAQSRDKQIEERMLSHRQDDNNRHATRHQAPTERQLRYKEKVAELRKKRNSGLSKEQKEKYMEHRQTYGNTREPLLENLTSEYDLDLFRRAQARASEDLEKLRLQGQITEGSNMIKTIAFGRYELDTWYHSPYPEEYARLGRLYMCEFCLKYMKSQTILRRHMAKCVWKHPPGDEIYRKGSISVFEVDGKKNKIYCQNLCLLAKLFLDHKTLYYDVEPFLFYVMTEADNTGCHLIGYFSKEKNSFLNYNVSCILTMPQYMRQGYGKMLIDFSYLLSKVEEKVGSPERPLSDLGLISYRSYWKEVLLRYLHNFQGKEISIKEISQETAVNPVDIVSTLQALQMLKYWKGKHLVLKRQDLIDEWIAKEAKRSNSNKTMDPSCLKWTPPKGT

[3] = KAT marker KAT7, PF-9363 0.1 v 30
[4] = KAT marker KAT7, PF-9363 (0.1 mM)
[5] = KAT marker KAT7, PF-9363 (30 mM)
[6] = MCF-7 cells, 24 h, any concentration (0.1-30 μM)

Structure (SMILES): COc1cccc(OC)c1S(=O)(=O)Nc1noc2cc(Cn3cccn3)cc(OC)c12 [PF-9363]
- IC50 (H3K14Ac (KAT7); Homo sapiens, MCF7, MCF-7 cells, 24 h): ~1 µM
- Fold-change 0.1 v 30, H3_9_17 K9me1K14ac (H3K14Ac (KAT7); [3]): 5.55
- Fold-change 0.1 v 30, H3_9_17 K9me2K14ac (H3K14Ac (KAT7); [3]): 4.54
- Fold-change 0.1 v 30, H3_9_17 K14ac (H3K14Ac (KAT7); [3]): 4.58
- Average ratio, H3_9_17 K9me1K14ac (H3K14Ac (KAT7); [4]): 0.0218
- Average ratio, H3_9_17 K9me2K14ac (H3K14Ac (KAT7); [4]): 0.1048
- Average ratio, H3_9_17 K14ac (H3K14Ac (KAT7); [4]): 0.0358
- Average ratio, H3_9_17 K9me1K14ac (H3K14Ac (KAT7); [5]): 0.0039
- Average ratio, H3_9_17 K9me2K14ac (H3K14Ac (KAT7); [5]): 0.0231
- Average ratio, H3_9_17 K14ac (H3K14Ac (KAT7); [5]): 0.0078
- Ratio, H3_9_17 K9me1K14ac (H3K14Ac (KAT7); KAT marker KAT7, dose 0.1): 0.01996 and 0.02377 and 0.02171
- Ratio, H3_9_17 K9me2K14ac (H3K14Ac (KAT7); KAT marker KAT7, dose 0.1): 0.087 and 0.123 and 0.1045
- Ratio, H3_9_17 K14ac (H3K14Ac (KAT7); KAT marker KAT7, dose 0.1): 0.03031 and 0.04488 and 0.03226
- Ratio, H3_9_17 K9me1K14ac (H3K14Ac (KAT7); KAT marker KAT7, dose 1): 0.01133 and 0.012 and 0.01281
- Ratio, H3_9_17 K9me2K14ac (H3K14Ac (KAT7); KAT marker KAT7, dose 1): 0.0545 and 0.07102 and 0.04882
- Ratio, H3_9_17 K14ac (H3K14Ac (KAT7); KAT marker KAT7, dose 1): 0.02498 and 0.02856 and 0.02464
- Ratio, H3_9_17 K9me1K14ac (H3K14Ac (KAT7); KAT marker KAT7, dose 10): 0.004127 and 0.006046 and 0.005821
- Ratio, H3_9_17 K9me2K14ac (H3K14Ac (KAT7); KAT marker KAT7, dose 10): 0.02988 and 0.02204 and 0.03567
- Ratio, H3_9_17 K14ac (H3K14Ac (KAT7); KAT marker KAT7, dose 10): 0.01535 and 0.01122 and 0.01409
- Ratio, H3_9_17 K9me1K14ac (H3K14Ac (KAT7); KAT marker KAT7, dose 30): 0.004797 and 0.003603 and 0.003398
- Ratio, H3_9_17 K9me2K14ac (H3K14Ac (KAT7); KAT marker KAT7, dose 30): 0.01983 and 0.02491 and 0.02445
- Ratio, H3_9_17 K14ac (H3K14Ac (KAT7); KAT marker KAT7, dose 30): 0.006424 and 0.008372 and 0.008647
- Fold-change 0.1 v 30, H3_9_17 K9ac (H3K9Ac (KAT2A/B); KAT marker KAT2A/B, PF-9363 0.1 v 30): 1.55
- Average ratio, H3_9_17 K9ac (H3K9Ac (KAT2A/B); KAT marker KAT2A/B, PF-9363 (30 μM)): 0.0036
- Average ratio, H3_9_17 K9ac (H3K9Ac (KAT2A/B); KAT marker KAT2A/B, PF-9363 (0.1 mM)): 0.0056
- Ratio, H3_9_17 K9ac (H3K9Ac (KAT2A/B); KAT marker KAT2A/B, dose 0.1): 0.007813 and 0.000147 and 0.0089
- Ratio, H3_9_17 K9ac (H3K9Ac (KAT2A/B); KAT marker KAT2A/B, dose 1): 0.005499 and 0.002205 and 0.005001
- Ratio, H3_9_17 K9ac (H3K9Ac (KAT2A/B); KAT marker KAT2A/B, dose 10): 0.000496 and 0.002771 and 0.002815
- Ratio, H3_9_17 K9ac (H3K9Ac (KAT2A/B); KAT marker KAT2A/B, dose 30): 0.004671 and 0.003182 and 0.003055
- modulation of H3K9Ac (H3K9Ac (KAT2A/B); [6]): not found to modulate
- Fold-change 0.1 v 30, H3_18_26 K18ac (H3K18Ac (KAT3A/B); KAT marker KAT3A/B, PF-9363 0.1 v 30): 1.39
- Average ratio, H3_18_26 K18ac (H3K18Ac (KAT3A/B); KAT marker KAT3A/B, PF-9363 (0.1 mM)): 0.0171
- Average ratio, H3_18_26 K18ac (H3K18Ac (KAT3A/B); KAT marker KAT3A/B, PF-9363 (30 mM)): 0.0123
- Ratio, H3_18_26 K18ac (H3K18Ac (KAT3A/B); KAT marker KAT3A/B, dose 0.1): 0.01666 and 0.01829 and 0.01641
- Ratio, H3_18_26 K18ac (H3K18Ac (KAT3A/B); KAT marker KAT3A/B, dose 1): 0.01874 and 0.01672 and 0.01619
- Ratio, H3_18_26 K18ac (H3K18Ac (KAT3A/B); KAT marker KAT3A/B, dose 10): 0.01831 and 0 and 0.01771
- Ratio, H3_18_26 K18ac (H3K18Ac (KAT3A/B); KAT marker KAT3A/B, dose 30): 0 and 0.0193 and 0.01765
- modulation of H3K18Ac (H3K18Ac (KAT3A/B); [6]): not found to modulate
- inhibition of KAT8 (H4K16Ac) (H4K16Ac (KAT8)): near complete inhibiton
- GI50 (NCI-60 cell line panel; Homo sapiens, most cell lines of the NCI-60 panel, read-out: half-maximal growth inhibition (GI50)): 10 to 100 µM
- tolerance of concentrations expected to primarily effect KAT6 and KAT7 (NCI-60 cell line panel; ≤ 1 μM): generally well-tolerated
- growth inhibition compared with CPI-1612 (BT-549 cells [1]): greater growth inhibition
- GI50 (BT-549 cells [2]): ~7 µM
- co-competition of KAT7 JADE complex members (KAT7): caused co-competition of JADE2, MEAF6, and ING4/5
